From patent US12397016B2, “Sulfated oligosaccharides having anti-inflammatory activity” (The University of North Carolina at Chapel Hill, priority 2017, dated 2025)
“Also recorded” adds a separate entry of the source.

Test system: APAP-induced liver injury in mice
Assay: Delayed treatment 6 h post-APAP, comparison with NAC
Assay type: in vivo, mouse
Details: read at 24 h, FIG. 5D
Procedure: To compare the 18-mer's effectiveness to N-acetyl cysteine (NAC), 300 mg kg^−1 NAC at pH 7.5 in sterile saline was injected intraperitoneal 30 min post-APAP. In a separate experiment, 300 mg kg^−1 NAC or 0.34 mg/kg 18-mer were administered 6 h post-APAP, then at 18 h post-APAP, 0.17 mg kg^−1 18-mer was administered to the 18-mer treated group. At 24 h post-APAP, mice were euthanized and blood and liver tissue were collected.
Plasma ALT was measured using the ALT Infinity reagent (Thermo Fisher Scientific) following the manufacturer's instructions. Plasma TNF-α was measured using Mouse TNF-α DuoSet Kit (R&D Systems, Minneapolis, Minnesota, United States of America) according to the manufacturer's instructions. Plasma HMGB1 levels were determined using HMGB1 ELISA Kit (Tecan US of Tecan Trading AG, Mannedorf, Switzerland) according to the manufacturer's instructions. Plasma syndecan-1 levels were determined using Mouse Syndecan-1 ELISA (CellSciences) according to manufacturer's instructions. Hepatic GSH levels were determined using Glutathione Assay Kit (Cayman Chemicals, Ann Arbor, Michigan, United States of America) according to the manufacturer's instructions.

CC(=O)N[C@@H](CS)C(=O)O [NAC, N-acetyl-cysteine]
protective effect (ALT) when administered six hours post-APAP: loses its protective effect; also recorded: loses effectiveness
